According to ChEMBL document CHEMBL5291721, “A preclinical secondary pharmacology resource illuminates target-adverse drug reaction associations of marketed drugs” (Nat Commun, 2023):

Tests used:
[1] = molecular target: T1, Cannabinoid receptor 1 (Homo sapiens, UniProt P21554); format: functional, cell-based
[2] = molecular target: T1, Cannabinoid receptor 1; format: functional, cell-based; remark: listed apart in the source
[3] = molecular target: T2, Endothelin-1 receptor (Homo sapiens, UniProt P25101)
T2 sequence (P25101 whole entry): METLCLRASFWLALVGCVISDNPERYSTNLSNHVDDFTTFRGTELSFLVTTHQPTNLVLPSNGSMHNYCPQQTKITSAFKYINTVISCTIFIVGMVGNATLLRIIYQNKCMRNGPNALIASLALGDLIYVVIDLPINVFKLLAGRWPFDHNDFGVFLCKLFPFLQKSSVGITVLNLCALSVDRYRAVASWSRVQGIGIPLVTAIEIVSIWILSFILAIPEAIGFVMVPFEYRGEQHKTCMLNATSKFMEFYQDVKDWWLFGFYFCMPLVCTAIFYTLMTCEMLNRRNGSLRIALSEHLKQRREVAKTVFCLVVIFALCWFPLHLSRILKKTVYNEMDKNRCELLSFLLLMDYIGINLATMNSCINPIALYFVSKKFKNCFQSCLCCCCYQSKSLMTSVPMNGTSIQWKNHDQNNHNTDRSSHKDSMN

[4] = molecular target: Gamma-aminobutyric acid receptor subunit alpha-1 (Rattus norvegicus, UniProt P62813); format: functional
[5] = molecular target: Growth hormone secretagogue receptor type 1 (Homo sapiens, UniProt Q92847)
[6] = molecular target: T3, 5-hydroxytryptamine receptor 2A (Homo sapiens, UniProt P28223); format: functional, cell-based
[7] = molecular target: T3, 5-hydroxytryptamine receptor 2A; format: functional, cell-based; remark: listed apart in the source
[8] = molecular target: Melanocortin receptor 3 (Homo sapiens, UniProt P41968)
[9] = molecular target: Kappa-type opioid receptor (Homo sapiens, UniProt P41145)
[10] = molecular target: T4, Progesterone receptor (Homo sapiens, UniProt P06401); format: functional
T4 sequence (P06401 whole entry): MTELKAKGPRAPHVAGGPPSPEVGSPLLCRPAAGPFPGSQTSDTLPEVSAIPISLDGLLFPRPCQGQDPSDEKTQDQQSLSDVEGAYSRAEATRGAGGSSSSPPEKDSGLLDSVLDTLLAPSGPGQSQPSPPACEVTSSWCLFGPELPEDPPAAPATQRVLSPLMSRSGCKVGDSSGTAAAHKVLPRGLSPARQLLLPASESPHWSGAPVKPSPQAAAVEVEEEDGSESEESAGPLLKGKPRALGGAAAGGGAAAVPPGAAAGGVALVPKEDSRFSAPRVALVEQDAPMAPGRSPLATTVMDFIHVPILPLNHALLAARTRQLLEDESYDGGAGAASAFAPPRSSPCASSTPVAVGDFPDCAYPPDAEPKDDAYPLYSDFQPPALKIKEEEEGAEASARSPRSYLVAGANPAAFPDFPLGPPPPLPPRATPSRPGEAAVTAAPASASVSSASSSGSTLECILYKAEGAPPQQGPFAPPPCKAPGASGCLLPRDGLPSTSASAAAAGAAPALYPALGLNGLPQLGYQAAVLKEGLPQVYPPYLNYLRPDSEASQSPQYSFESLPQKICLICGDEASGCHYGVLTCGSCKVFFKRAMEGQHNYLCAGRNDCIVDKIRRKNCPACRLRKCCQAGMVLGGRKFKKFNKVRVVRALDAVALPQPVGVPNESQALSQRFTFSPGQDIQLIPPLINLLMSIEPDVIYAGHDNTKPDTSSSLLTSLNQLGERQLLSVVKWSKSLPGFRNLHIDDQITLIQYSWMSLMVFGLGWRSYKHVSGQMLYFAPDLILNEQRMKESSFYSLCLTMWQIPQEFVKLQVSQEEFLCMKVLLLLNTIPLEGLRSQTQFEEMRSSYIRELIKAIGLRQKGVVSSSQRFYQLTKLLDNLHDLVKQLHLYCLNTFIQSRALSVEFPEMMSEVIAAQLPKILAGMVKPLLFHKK

[11] = molecular target: Beta-2 adrenergic receptor (Homo sapiens, UniProt P07550); format: functional, cell-based
[12] = molecular target: T5, 5-hydroxytryptamine receptor 1A (Homo sapiens, UniProt P08908); format: functional, cell-based
T5 sequence (P08908 whole entry): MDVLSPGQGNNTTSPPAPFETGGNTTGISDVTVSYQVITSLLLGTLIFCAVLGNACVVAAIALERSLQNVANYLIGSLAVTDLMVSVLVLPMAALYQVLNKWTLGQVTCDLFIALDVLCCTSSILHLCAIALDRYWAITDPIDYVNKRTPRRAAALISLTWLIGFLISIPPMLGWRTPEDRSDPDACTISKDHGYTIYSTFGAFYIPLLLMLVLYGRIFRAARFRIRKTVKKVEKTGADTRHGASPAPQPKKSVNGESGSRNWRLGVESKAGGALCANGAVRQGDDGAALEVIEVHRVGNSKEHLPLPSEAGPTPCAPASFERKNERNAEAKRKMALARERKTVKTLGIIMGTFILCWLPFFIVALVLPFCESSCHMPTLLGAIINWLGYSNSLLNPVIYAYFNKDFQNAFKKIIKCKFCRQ

[13] = molecular target: T6, Alpha-1A adrenergic receptor (Homo sapiens, UniProt P35348)
T6 sequence (P35348 whole entry): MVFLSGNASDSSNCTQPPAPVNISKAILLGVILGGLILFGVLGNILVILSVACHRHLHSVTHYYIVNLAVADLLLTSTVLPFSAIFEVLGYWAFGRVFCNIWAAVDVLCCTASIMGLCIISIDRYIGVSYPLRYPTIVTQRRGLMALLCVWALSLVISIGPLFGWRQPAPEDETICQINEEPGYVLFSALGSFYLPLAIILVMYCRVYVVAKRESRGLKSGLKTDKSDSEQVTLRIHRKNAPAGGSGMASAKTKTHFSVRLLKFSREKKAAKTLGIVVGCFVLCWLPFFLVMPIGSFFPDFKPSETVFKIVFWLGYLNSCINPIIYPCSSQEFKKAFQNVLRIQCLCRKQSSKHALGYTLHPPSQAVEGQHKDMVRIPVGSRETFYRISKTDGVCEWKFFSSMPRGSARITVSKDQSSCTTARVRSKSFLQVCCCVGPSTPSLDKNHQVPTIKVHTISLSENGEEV

[14] = molecular target: T1, Cannabinoid receptor 1
[15] = molecular target: Melanocortin receptor 4 (Homo sapiens, UniProt P32245)
[16] = molecular target: Mu-type opioid receptor (Homo sapiens, UniProt P35372)
Further: assay procedure not described here.

T3 sequence (P28223 whole entry): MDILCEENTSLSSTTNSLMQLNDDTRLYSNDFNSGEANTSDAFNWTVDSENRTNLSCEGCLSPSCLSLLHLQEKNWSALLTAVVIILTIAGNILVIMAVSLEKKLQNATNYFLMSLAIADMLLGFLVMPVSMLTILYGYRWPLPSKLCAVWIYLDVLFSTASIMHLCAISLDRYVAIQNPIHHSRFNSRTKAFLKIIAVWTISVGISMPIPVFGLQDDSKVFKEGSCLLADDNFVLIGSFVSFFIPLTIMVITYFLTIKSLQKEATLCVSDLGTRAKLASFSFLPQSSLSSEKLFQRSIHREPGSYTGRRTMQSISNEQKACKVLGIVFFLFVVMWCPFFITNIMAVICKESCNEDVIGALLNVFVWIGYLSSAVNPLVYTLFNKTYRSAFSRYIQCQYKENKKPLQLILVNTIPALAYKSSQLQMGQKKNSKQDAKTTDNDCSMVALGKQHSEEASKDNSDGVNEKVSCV
Melanocortin receptor 4, sequence (P32245 whole entry): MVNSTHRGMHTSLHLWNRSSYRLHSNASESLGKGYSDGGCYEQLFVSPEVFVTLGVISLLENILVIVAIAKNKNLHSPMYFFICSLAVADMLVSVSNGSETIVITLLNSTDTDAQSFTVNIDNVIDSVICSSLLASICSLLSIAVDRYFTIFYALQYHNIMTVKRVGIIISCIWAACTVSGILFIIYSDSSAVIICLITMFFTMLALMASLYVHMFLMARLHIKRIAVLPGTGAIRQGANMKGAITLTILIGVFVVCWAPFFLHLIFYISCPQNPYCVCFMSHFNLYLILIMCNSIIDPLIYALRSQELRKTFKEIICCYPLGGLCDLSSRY
Growth hormone secretagogue receptor type 1, sequence (Q92847 whole entry): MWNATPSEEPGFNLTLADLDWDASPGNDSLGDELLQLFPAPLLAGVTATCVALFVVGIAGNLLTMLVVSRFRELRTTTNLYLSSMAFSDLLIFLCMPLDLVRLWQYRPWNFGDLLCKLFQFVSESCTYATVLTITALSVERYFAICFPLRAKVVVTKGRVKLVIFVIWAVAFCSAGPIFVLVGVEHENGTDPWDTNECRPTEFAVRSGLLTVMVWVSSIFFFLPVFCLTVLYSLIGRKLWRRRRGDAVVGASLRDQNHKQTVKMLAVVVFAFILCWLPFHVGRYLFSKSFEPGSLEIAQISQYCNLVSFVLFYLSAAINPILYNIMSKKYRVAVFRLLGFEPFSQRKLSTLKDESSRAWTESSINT
Beta-2 adrenergic receptor, sequence (P07550 whole entry): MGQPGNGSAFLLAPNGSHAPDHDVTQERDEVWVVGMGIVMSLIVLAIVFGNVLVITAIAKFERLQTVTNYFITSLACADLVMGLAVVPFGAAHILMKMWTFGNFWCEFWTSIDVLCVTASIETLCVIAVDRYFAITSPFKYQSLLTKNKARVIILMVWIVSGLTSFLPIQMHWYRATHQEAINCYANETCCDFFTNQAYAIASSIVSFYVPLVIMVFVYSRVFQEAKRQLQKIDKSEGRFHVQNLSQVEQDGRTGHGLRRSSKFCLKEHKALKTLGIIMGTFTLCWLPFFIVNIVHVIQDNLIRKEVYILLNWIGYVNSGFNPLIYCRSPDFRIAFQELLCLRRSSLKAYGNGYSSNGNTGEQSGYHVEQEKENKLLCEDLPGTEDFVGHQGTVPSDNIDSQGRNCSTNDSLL
Melanocortin receptor 3, sequence (P41968 whole entry): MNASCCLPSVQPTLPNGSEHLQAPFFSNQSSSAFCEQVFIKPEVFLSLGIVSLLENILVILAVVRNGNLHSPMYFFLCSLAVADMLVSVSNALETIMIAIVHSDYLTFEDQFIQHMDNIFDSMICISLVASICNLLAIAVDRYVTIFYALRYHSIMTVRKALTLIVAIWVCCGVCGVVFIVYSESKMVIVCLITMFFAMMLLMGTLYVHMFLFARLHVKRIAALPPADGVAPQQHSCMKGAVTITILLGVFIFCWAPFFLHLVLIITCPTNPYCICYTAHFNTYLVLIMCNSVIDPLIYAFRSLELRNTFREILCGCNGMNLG
T1 sequence (P21554 whole entry): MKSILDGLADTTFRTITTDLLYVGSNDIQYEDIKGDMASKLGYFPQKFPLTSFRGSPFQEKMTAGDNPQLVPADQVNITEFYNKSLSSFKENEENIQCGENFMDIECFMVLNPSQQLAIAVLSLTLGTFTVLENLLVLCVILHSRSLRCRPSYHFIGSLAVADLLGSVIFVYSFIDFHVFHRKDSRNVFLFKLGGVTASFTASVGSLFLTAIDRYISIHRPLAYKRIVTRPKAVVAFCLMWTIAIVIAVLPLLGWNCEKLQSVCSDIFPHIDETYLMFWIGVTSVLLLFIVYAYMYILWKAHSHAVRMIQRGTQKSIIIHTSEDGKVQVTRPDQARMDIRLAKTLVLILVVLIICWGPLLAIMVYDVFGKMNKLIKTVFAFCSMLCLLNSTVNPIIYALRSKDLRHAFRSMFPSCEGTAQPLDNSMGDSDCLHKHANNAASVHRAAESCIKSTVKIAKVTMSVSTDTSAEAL
Kappa-type opioid receptor, sequence (P41145 whole entry): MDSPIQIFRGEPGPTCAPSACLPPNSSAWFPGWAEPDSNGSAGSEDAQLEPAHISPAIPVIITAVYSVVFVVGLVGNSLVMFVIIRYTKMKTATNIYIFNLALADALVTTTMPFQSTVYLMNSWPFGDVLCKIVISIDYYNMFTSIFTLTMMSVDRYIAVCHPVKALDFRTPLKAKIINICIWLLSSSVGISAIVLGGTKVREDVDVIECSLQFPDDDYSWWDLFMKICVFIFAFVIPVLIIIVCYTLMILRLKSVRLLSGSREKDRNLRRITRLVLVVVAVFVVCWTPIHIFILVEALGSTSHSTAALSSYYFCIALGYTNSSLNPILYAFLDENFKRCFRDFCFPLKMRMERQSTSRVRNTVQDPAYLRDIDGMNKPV
Gamma-aminobutyric acid receptor subunit alpha-1, sequence (P62813 whole entry): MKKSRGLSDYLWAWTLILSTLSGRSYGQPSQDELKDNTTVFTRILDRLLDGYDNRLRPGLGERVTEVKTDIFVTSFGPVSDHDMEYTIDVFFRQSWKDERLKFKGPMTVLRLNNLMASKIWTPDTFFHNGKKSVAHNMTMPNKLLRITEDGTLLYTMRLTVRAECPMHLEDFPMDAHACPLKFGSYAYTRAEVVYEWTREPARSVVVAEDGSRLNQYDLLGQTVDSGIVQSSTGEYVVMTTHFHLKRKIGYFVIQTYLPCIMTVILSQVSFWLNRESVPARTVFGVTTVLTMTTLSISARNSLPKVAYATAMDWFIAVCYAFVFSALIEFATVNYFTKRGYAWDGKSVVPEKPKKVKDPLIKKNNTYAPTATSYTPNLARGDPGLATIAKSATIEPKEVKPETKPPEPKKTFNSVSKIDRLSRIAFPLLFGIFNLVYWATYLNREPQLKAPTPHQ
Mu-type opioid receptor, sequence (P35372 whole entry): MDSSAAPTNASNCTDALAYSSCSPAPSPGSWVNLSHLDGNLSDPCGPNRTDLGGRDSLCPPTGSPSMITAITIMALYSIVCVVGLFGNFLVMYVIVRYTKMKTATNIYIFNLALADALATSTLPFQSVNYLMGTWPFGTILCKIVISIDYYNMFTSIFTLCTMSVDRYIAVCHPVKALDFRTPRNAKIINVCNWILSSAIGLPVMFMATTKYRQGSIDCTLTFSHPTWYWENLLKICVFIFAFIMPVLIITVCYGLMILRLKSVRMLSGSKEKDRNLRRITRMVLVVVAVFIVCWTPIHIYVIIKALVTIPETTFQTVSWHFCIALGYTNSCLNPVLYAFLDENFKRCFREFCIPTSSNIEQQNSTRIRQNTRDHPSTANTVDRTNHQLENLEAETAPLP

Row | Compound | AC50 [1] [µM] | AC50 [2] [µM] | AC50 [3] [µM] | AC50 [4] [µM] | AC50 [5] [µM] | AC50 [6] [µM] | AC50 [7] [µM] | AC50 [8] [µM] | AC50 [9] [µM] | AC50 [10] [µM] | AC50 [11] [µM] | AC50 [12] [µM] | AC50 [13] [µM] | AC50 [14] [µM] | AC50 [15] [µM] | AC50 [16] [µM]
1 | CC(=O)SC[C@@H](C)C(=O)N1CCC[C@H]1C(=O)N[C@@H](Cc1ccccc1)C(=O)O | > 30 | > 30 | > 30 | > 30 | > 30 | > 30 | > 30 | > 30 | 21 | > 30 | – | – | – | – | – | –
2 | CC(=O)O[C@H](CC(=O)[O-])C[N+](C)(C)C [ACETYLCARNITINE] | > 30 | > 30 | > 30 | > 30 | > 30 | > 30 | > 30 | > 30 | > 30 | > 30 | > 30 | – | – | – | – | –
3 | Oc1ccc2c(c1)[C@@]13CCCC[C@@]1(O)[C@@H](C2)N(CC1CCC1)CC3 [BUTORPHANOL] | > 30 | > 30 | > 30 | > 30 | > 30 | > 30 | > 30 | > 30 | 0.025 | > 30 | > 30 | > 30 | – | – | – | –
4 | C=C1/C(=C\C=C2/CCC[C@]3(C)[C@@H]([C@H](C)/C=C/[C@@H](O)C4CC4)CC[C@@H]23)C[C@@H](O)C[C@@H]1O [CALCIPOTRIENE] | – | – | > 30 | > 30 | > 30 | > 30 | > 30 | > 30 | > 30 | 20 | – | – | 29 | > 30 | – | –
5 | CCN(CC)C(=O)Nc1ccc(OCC(O)CNC(C)(C)C)c(C(C)=O)c1 (configuration not stated) [CELIPROLOL] | > 30 | > 30 | > 30 | > 30 | > 30 | > 30 | > 30 | > 30 | > 30 | > 30 | > 30 | > 30 | – | – | – | –
6 | C=C[C@@]1(C)CC(=O)[C@]2(O)[C@@]3(C)[C@@H](O)CCC(C)(C)[C@@H]3[C@H](O)[C@H](OC(C)=O)[C@@]2(C)O1 [COLFORSIN] | > 30 | > 30 | > 30 | > 30 | > 30 | > 30 | 18 | > 30 | > 30 | > 30 | – | 1.2 | – | – | – | –
7 | CC(=O)[C@@]1(O)CC[C@H]2[C@@H]3C=C(Cl)C4=CC(=O)[C@@H]5C[C@@H]5[C@]4(C)[C@H]3CC[C@@]21C [CYPROTERONE] | – | – | – | > 10 | > 10 | > 10 | > 10 | > 10 | 5.32 | – | – | > 10 | > 10 | > 10 | > 10 | > 30
8 | CCCCCCCCCCCCCCCCCCCCCC(=O)Nc1ccn([C@@H]2O[C@H](CO)[C@@H](O)[C@@H]2O)c(=O)n1 [ENOCITABINE] | > 30 | > 30 | > 30 | > 30 | > 30 | > 30 | > 30 | > 30 | > 30 | > 30 | – | – | – | – | – | –
9 | O=C(O)c1ccccc1Nc1cc(Cl)ccc1C(=O)O [LOBENZARIT] | > 30 | > 30 | > 30 | > 30 | > 30 | > 30 | > 30 | > 30 | > 30 | > 30 | > 30 | – | – | – | – | –
10 | CCOC(=O)O[C@]1(C(=O)OCCl)CC[C@H]2[C@@H]3CCC4=CC(=O)C=C[C@]4(C)[C@H]3[C@@H](O)C[C@@]21C [LOTEPREDNOL ETABONATE] | – | – | > 30 | > 30 | > 30 | > 30 | > 30 | > 30 | > 30 | – | – | – | – | > 30 | – | –
11 | COc1cc2c(cc1OC)C(CCc1ccc(Cl)cc1)N(C)CC2 (configuration not stated) [METHOPHOLINE] | – | – | – | > 10 | > 30 | > 10 | > 10 | > 30 | 1.2 | > 30 | – | > 10 | > 10 | > 10 | > 30 | > 30
12 | COc1ccc(-c2noc(CC(=O)O)c2-c2ccc(OC)cc2)cc1 [MOFEZOLAC] | > 30 | > 30 | > 30 | > 30 | > 30 | > 30 | > 30 | > 30 | > 30 | > 30 | > 30 | – | – | – | – | –
13 | C#CCOc1ccc(N)cc1C(=O)NCCCC [PARSALMIDE] | > 30 | > 30 | > 30 | > 30 | > 30 | > 30 | 30 | > 30 | > 30 | > 30 | – | > 30 | – | – | – | –
14 | CC1=C(C)C(=O)C(C(CCCCCC(=O)O)c2ccccc2)=C(C)C1=O (configuration not stated) [SERATRODAST] | – | – | – | > 30 | > 30 | > 30 | > 30 | > 30 | > 30 | > 30 | – | – | > 30 | > 30 | > 30 | –
15 | CCC(COC(=O)c1cc(OC)c(OC)c(OC)c1)(c1ccccc1)N(C)C (configuration not stated) [TRIMEBUTINE] | > 30 | > 30 | > 30 | > 30 | > 30 | > 30 | > 30 | > 30 | 0.19 | > 30 | > 30 | > 30 | – | – | – | –
